Results reported in ChEMBL document CHEMBL1129068, “Structure-activity relationships of the antimalarial agent artemisinin. 5. Analogs of 10-deoxoartemisinin substituted at C-3 and C-9” (J Med Chem, 1996).

What was measured:
[1] = system: Plasmodium falciparum; assay: Relative in vitro activity compared to artemisinin against Plasmodium falciparum D6 (Sierra Leone); assay type: functional
[2] = system: Plasmodium falciparum; assay: Relative in vitro activity compared to artemisinin against Plasmodium falciparum Indochina W2; assay type: functional

Question: Which results are given for CCCCC[C@H]1CO[C@@H]2O[C@@]3(C)CC[C@H]4[C@H](C)CC[C@@H]1[C@@]24OO3?
Answer: Relative activity [1]: 170; Relative activity [2]: 145

Question: Which results are given for CC(C)C[C@@]12CC[C@H]3[C@H](C)CC[C@H]4CCO[C@H](O1)[C@]43OO2?
Answer: Relative activity [1]: 183; Relative activity [2]: 250

Question: For C[C@@H]1CC[C@H]2CCO[C@@H]3O[C@@]4(CCC(=O)O)CC[C@@H]1[C@@]23OO4, which Relative activity [1] is on record?
Answer: 0.09

Question: What about the Relative activity [2] of the same compound?
Answer: 0.09

Question: With CC[C@H]1CO[C@@H]2O[C@@]3(C)CC[C@H]4[C@H](C)CC[C@@H]1[C@@]24OO3 as the compound, how does the Relative activity [1] read?
Answer: 914

Question: What about the Relative activity [2] of the same compound?
Answer: 466

Question: How did the Relative activity [1] turn out when CCC[C@@]12CC[C@H]3[C@H](C)CC[C@H]4CCO[C@H](O1)[C@]43OO2 was run?
Answer: 722

Question: What about the Relative activity [2] of the same compound?
Answer: 685

Question: Which results are given for C[C@@H]1CC[C@H]2CCO[C@@H]3O[C@@]4(CCCCc5ccccc5)CC[C@@H]1[C@@]23OO4?
Answer: Relative activity [1]: 336; Relative activity [2]: 380

Question: With CCCC[C@H]1CO[C@@H]2O[C@@]3(C)CC[C@H]4[C@H](C)CC[C@@H]1[C@@]24OO3 as the compound, how does the Relative activity [1] read?
Answer: 5826

Question: And the Relative activity [2]?
Answer: 2090

Question: Which results are given for C[C@@H]1CC[C@H]2[C@@H](C)CO[C@@H]3O[C@]4(C)CC[C@@H]1[C@]32OO4 [DEOXOARTEMISININ]?
Answer: Relative activity [1]: 659; Relative activity [2]: 567

Question: Which Relative activity [1] does the source give for CC[C@@]12CC[C@H]3[C@H](C)CC[C@H]4CCO[C@H](O1)[C@]43OO2 here?
Answer: 10

Question: What about the Relative activity [2] of the same compound?
Answer: 10

Question: Which Relative activity [1] does the source give for CCC[C@H]1CO[C@@H]2O[C@@]3(C)CC[C@H]4[C@H](C)CC[C@@H]1[C@@]24OO3 here?
Answer: 473

Question: And the Relative activity [2]?
Answer: 550

Question: With C[C@@H]1CC[C@H]2CCO[C@@H]3O[C@@]4(C)CC[C@@H]1[C@@]23OO4 as the compound, how does the Relative activity [1] read?
Answer: 237

Question: And the Relative activity [2]?
Answer: 190

Question: With C[C@@H]1CC[C@H]2CCO[C@@H]3O[C@@]4(CCc5ccccc5)CC[C@@H]1[C@@]23OO4 as the compound, how does the Relative activity [1] read?
Answer: 6

Question: And the Relative activity [2]?
Answer: 2

Question: C[C@@H]1CC[C@H]2[C@@H](CCCc3ccc(Cl)cc3)CO[C@@H]3O[C@@]4(C)CC[C@@H]1[C@]32OO4 was tested. Which Relative activity [1] did it give?
Answer: 6991

Question: And the Relative activity [2]?
Answer: 3317

Question: For C[C@@H]1CC[C@H]2CCO[C@@H]3O[C@@]4(CCCc5ccc(Cl)cc5)CC[C@@H]1[C@@]23OO4, which Relative activity [1] is on record?
Answer: 13

Question: And the Relative activity [2]?
Answer: 28

Question: Which Relative activity [1] does the source give for CCCC[C@@]12CC[C@H]3[C@H](C)CC[C@H]4CCO[C@H](O1)[C@]43OO2 here?
Answer: 653

Question: What about the Relative activity [2] of the same compound?
Answer: 556

Question: What does the source list for CCOC(=O)CC[C@@]12CC[C@H]3[C@H](C)CC[C@H]4CCO[C@H](O1)[C@]43OO2?
Answer: Relative activity [1]: 422; Relative activity [2]: 506

Question: C[C@@H]1CC[C@H]2[C@@H](CCCc3ccccc3)CO[C@@H]3O[C@@]4(C)CC[C@@H]1[C@]32OO4 was tested. Which Relative activity [1] did it give?
Answer: 5073

Question: What about the Relative activity [2] of the same compound?
Answer: 2506
